# Measured values published in article PMC8632988, “Inhibition of SYK and cSrc kinases can protect bone and cartilage in preclinical models of osteoarthritis and rheumatoid arthritis” (Scientific Reports, 2021).
# Columns and labels:
# Assay in all cases: Kinase selectivity profile assay
# Type in all cases: biochemical
# AKT1 = biological target: T1, AKT1 (Homo sapiens, UniProt P31749); details: 500 nM; relative to DMSO; read-out: Residual enzymatic activity
# T1 construct: purchased Reaction Biology Corporation
# Protocol: (§1) The activity of MT-SYK-03 against cSrc kinase and selectivity profile towards other 341 kinases was determined at Reaction Biology Corporation (Malvern, PA, USA) using the standard kinase assay protocol. […]; unbound phosphate was removed by extensive washing of filters in phosphoric acid. Kinase activity data was expressed as the percent remaining kinase activity in test samples compared to vehicle (dimethyl sulfoxide) reactions based on the radioactivity of reaction products (see Table S2). Experiment was replicated twice.
# AKT2 = biological target: T2, AKT2 (Homo sapiens, UniProt P31751); details: 500 nM; relative to DMSO; read-out: Residual enzymatic activity
# T2 construct: purchased Reaction Biology Corporation
# Protocol: as §1
# ASK1/MAP3K5 = biological target: T3, ASK1/MAP3K5 (Homo sapiens, UniProt Q99683); details: 500 nM; relative to DMSO; read-out: Residual enzymatic activity
# T3 construct: purchased Reaction Biology Corporation
# Protocol: as §1
# BRK = biological target: T4, BRK (Homo sapiens, UniProt Q13882); details: 500 nM; relative to DMSO; read-out: Residual enzymatic activity
# T4 construct: purchased Reaction Biology Corporation
# Protocol: as §1
# BTK = biological target: T5, BTK (Homo sapiens, UniProt Q06187); details: 500 nM; relative to DMSO; read-out: Residual enzymatic activity
# T5 construct: purchased Reaction Biology Corporation
# Protocol: as §1
# CAMK2b = biological target: T6, CAMK2b (Homo sapiens, UniProt Q13554); details: 500 nM; relative to DMSO; read-out: Residual enzymatic activity
# T6 construct: purchased Reaction Biology Corporation
# Protocol: as §1
# CAMK2g = biological target: T7, CAMK2g (Homo sapiens, UniProt Q13555); details: 500 nM; relative to DMSO; read-out: Residual enzymatic activity
# T7 construct: purchased Reaction Biology Corporation
# Protocol: as §1
# CDK2/cyclin A = biological target: T8, CDK2/cyclin A (Homo sapiens, UniProt P24941); details: 500 nM; relative to DMSO; read-out: Residual enzymatic activity
# T8 construct: purchased Reaction Biology Corporation
# Protocol: as §1
# CDK4/cyclin D3 = biological target: T9, CDK4/cyclin D3 (Homo sapiens, UniProt P11802); details: 500 nM; relative to DMSO; read-out: Residual enzymatic activity
# T9 construct: purchased Reaction Biology Corporation
# Protocol: as §1
# CK2a = biological target: T10, CK2a (Homo sapiens, UniProt P68400); details: 500 nM; relative to DMSO; read-out: Residual enzymatic activity
# T10 construct: purchased Reaction Biology Corporation
# Protocol: as §1
# CLK4 = biological target: T11, CLK4 (Homo sapiens, UniProt Q9HAZ1); details: 500 nM; relative to DMSO; read-out: Residual enzymatic activity
# T11 construct: purchased Reaction Biology Corporation
# Protocol: as §1
# DMPK2 = biological target: T12, DMPK2 (Homo sapiens, UniProt Q6DT37); details: read-out: Residual enzymatic activity
# T12 construct: purchased Reaction Biology Corporation
# Protocol: as §1
# EPHB2 = biological target: T13, EPHB2 (Homo sapiens, UniProt P29323); details: 500 nM; relative to DMSO; read-out: Residual enzymatic activity
# T13 construct: purchased Reaction Biology Corporation
# Protocol: as §1
# ERK7/MAPK15 = biological target: T14, ERK7/MAPK15 (Homo sapiens, UniProt Q8TD08); details: read-out: Residual enzymatic activity
# T14 construct: purchased Reaction Biology Corporation
# Protocol: as §1
# FER = biological target: T15, FER (Homo sapiens, UniProt P16591); details: 500 nM; relative to DMSO; read-out: Residual enzymatic activity
# T15 construct: purchased Reaction Biology Corporation
# Protocol: as §1
# FGFR4 = biological target: T16, FGFR4 (Homo sapiens, UniProt P22455); details: 500 nM; relative to DMSO; read-out: Residual enzymatic activity
# T16 construct: purchased Reaction Biology Corporation
# Protocol: as §1
# FGR = biological target: T17, FGR (Homo sapiens, UniProt P09769); details: 500 nM; relative to DMSO; read-out: Residual enzymatic activity
# T17 construct: purchased Reaction Biology Corporation (assay service)
# Protocol: as §1
# GRK4 = biological target: T18, GRK4 (Homo sapiens, UniProt P32298); details: 500 nM; relative to DMSO; read-out: Residual enzymatic activity
# T18 construct: purchased Reaction Biology Corporation
# Protocol: as §1
# GSK3b = biological target: T19, GSK3b (Homo sapiens, UniProt P49841); details: 500 nM; relative to DMSO; read-out: Residual enzymatic activity
# T19 construct: purchased Reaction Biology Corporation
# Protocol: as §1
# HGK/MAP4K4 = biological target: T20, HGK/MAP4K4 (Homo sapiens, UniProt O95819); details: 500 nM; relative to DMSO; read-out: Residual enzymatic activity
# T20 construct: purchased Reaction Biology Corporation
# Protocol: as §1
# JAK3 = biological target: T21, JAK3 (Homo sapiens, UniProt P52333); details: 500 nM; relative to DMSO; read-out: Residual enzymatic activity
# T21 construct: purchased Reaction Biology Corporation
# Protocol: as §1
# LCK2/ICK = biological target: T22, LCK2/ICK (Homo sapiens, UniProt Q9UPZ9); details: 500 nM; relative to DMSO; read-out: Residual enzymatic activity
# T22 construct: purchased Reaction Biology Corporation
# Protocol: as §1
# MEK3 = biological target: T23, MEK3 (Homo sapiens, UniProt P46734); details: 500 nM; relative to DMSO; read-out: Residual enzymatic activity
# T23 construct: purchased Reaction Biology Corporation
# Protocol: as §1
# MSK2/RPS6KA4 = biological target: T24, MSK2/RPS6KA4 (Homo sapiens, UniProt O75676); details: 500 nM; relative to DMSO; read-out: Residual enzymatic activity
# T24 construct: purchased Reaction Biology Corporation
# Protocol: as §1
# PASK = biological target: T25, PASK (Homo sapiens, UniProt Q96RG2); details: 500 nM; relative to DMSO; read-out: Residual enzymatic activity
# T25 construct: purchased Reaction Biology Corporation
# Protocol: as §1
# PDGFRa = biological target: T26, PDGFRa (Homo sapiens, UniProt P16234); details: 500 nM; relative to DMSO; read-out: Residual enzymatic activity
# T26 construct: purchased Reaction Biology Corporation (Malvern, PA, USA)
# Protocol: as §1
# PIM1 = biological target: T27, PIM1 (Homo sapiens, UniProt P11309); details: 500 nM; relative to DMSO; read-out: Residual enzymatic activity
# T27 construct: purchased Reaction Biology Corporation
# Protocol: as §1
# PKCb2 = biological target: T28, PKCb2 (Homo sapiens, UniProt P05771); details: 500 nM; relative to DMSO; read-out: Residual enzymatic activity
# T28 construct: purchased Reaction Biology Corporation
# Protocol: as §1
# PRKX = biological target: T29, PRKX (Homo sapiens, UniProt P51817); details: 500 nM; relative to DMSO; read-out: Residual enzymatic activity
# T29 construct: purchased Reaction Biology Corporation
# Protocol: as §1
# STK38L/NDR2 = biological target: T30, STK38L/NDR2 (Homo sapiens, UniProt Q9Y2H1); details: 500 nM; relative to DMSO; read-out: Residual enzymatic activity
# T30 construct: purchased Reaction Biology Corporation
# Protocol: as §1
# TSSK2 = biological target: T31, TSSK2 (Homo sapiens, UniProt Q96PF2); details: 500 nM; relative to DMSO; read-out: Residual enzymatic activity
# T31 construct: purchased Reaction Biology Corporation
# Protocol: as §1
# TTBK2 = biological target: T32, TTBK2 (Homo sapiens, UniProt Q6IQ55); details: 500 nM; relative to DMSO; read-out: Residual enzymatic activity
# T32 construct: purchased Reaction Biology Corporation
# Protocol: as §1
# TYK1/LTK = biological target: T33, TYK1/LTK (Homo sapiens, UniProt P29376); details: 500 nM; relative to DMSO; read-out: Residual enzymatic activity
# T33 construct: purchased Reaction Biology Corporation
# Protocol: as §1
# ULK1 = biological target: T34, ULK1 (Homo sapiens, UniProt O75385); details: 500 nM; relative to DMSO; read-out: Residual enzymatic activity
# T34 construct: purchased Reaction Biology Corporation
# Protocol: as §1
# WNK2 = biological target: T35, WNK2 (Homo sapiens, UniProt Q9Y3S1); details: 500 nM; relative to DMSO; read-out: Residual enzymatic activity
# T35 construct: purchased Reaction Biology Corporation
# Protocol: as §1
# YES/YES1 = biological target: T36, YES/YES1 (Homo sapiens, UniProt P07947); details: 500 nM; relative to DMSO; read-out: Residual enzymatic activity
# T36 construct: purchased Reaction Biology Corporation (Malvern, PA, USA)
# Protocol: as §1
# ZAK/MLTK = biological target: T37, ZAK/MLTK (Homo sapiens, UniProt Q9NYL2); details: 500 nM; relative to DMSO; read-out: Residual enzymatic activity
# T37 construct: purchased Reaction Biology Corporation
# Protocol: as §1
# c-MET = biological target: T38, c-MET (Homo sapiens, UniProt P08581); details: 500 nM; relative to DMSO; read-out: Residual enzymatic activity
# T38 construct: purchased Reaction Biology Corporation
# Protocol: as §1
# p70S6K/RPS6KB1 = biological target: T39, p70S6K/RPS6KB1 (Homo sapiens, UniProt P23443); details: 500 nM; relative to DMSO; read-out: Residual enzymatic activity
# T39 construct: purchased Reaction Biology Corporation
# Protocol: as §1
# T11 sequence (Q9HAZ1 whole entry): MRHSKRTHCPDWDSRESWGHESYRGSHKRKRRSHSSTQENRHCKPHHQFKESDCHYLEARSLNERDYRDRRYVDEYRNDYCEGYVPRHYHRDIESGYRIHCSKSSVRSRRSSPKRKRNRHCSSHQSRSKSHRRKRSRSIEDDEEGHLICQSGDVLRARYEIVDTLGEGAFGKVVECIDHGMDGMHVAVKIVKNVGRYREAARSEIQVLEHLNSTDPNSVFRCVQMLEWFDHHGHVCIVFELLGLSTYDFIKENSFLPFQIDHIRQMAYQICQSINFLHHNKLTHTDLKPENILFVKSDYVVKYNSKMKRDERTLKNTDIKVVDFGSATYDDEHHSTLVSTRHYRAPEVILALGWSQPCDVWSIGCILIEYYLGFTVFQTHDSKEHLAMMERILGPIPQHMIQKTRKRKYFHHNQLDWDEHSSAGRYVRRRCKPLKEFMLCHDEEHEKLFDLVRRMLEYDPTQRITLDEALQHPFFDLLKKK
# T39 sequence (P23443 whole entry): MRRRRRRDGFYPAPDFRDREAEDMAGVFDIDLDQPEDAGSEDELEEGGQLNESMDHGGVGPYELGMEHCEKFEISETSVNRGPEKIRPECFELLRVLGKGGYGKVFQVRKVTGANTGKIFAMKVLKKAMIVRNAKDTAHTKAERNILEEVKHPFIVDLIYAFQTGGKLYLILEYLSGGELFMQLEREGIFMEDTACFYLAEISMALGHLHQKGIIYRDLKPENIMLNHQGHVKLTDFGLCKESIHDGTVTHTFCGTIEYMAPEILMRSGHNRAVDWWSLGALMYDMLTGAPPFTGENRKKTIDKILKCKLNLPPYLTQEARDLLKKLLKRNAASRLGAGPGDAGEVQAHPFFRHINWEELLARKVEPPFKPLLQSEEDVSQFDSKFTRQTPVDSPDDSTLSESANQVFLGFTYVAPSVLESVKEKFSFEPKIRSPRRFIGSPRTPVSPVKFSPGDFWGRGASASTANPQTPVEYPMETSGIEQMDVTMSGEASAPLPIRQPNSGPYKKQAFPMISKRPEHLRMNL
# T5 sequence (Q06187 whole entry): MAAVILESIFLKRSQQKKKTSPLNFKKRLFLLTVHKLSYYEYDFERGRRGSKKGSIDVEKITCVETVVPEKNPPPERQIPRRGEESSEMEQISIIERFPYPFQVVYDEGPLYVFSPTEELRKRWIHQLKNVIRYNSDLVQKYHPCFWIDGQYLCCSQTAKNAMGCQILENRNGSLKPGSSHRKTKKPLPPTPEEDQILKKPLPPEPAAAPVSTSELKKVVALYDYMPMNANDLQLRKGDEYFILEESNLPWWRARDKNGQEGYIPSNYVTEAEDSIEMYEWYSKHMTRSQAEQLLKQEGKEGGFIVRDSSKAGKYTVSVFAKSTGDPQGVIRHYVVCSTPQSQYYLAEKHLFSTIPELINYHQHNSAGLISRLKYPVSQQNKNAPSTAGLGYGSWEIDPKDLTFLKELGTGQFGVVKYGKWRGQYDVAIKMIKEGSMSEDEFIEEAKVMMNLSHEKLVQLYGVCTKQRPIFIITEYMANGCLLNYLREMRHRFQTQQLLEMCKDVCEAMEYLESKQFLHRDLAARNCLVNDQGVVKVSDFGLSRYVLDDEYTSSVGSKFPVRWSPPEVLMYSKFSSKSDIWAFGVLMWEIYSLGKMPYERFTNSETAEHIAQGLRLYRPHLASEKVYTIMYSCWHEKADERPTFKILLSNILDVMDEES
# T28 sequence (P05771 1-673 isoform P05771-2): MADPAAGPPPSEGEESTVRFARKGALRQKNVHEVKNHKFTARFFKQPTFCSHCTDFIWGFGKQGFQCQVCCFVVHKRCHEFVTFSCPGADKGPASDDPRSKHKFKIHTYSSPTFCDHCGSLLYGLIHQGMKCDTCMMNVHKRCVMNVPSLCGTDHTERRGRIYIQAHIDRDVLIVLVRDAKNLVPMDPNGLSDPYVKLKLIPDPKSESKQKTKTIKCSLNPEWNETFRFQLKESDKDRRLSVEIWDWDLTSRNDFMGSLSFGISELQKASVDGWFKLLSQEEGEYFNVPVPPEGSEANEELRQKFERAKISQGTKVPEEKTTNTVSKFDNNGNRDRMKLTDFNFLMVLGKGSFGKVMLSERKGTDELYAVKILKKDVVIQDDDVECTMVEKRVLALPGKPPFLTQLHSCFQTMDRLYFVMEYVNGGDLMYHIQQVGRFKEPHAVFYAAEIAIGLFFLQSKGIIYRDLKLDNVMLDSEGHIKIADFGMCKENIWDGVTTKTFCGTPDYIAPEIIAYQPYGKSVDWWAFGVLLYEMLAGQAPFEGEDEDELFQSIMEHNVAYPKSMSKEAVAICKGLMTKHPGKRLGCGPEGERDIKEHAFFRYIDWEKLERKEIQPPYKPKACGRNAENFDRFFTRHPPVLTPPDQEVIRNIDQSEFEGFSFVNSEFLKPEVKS
# T12 sequence (Q6DT37 whole entry): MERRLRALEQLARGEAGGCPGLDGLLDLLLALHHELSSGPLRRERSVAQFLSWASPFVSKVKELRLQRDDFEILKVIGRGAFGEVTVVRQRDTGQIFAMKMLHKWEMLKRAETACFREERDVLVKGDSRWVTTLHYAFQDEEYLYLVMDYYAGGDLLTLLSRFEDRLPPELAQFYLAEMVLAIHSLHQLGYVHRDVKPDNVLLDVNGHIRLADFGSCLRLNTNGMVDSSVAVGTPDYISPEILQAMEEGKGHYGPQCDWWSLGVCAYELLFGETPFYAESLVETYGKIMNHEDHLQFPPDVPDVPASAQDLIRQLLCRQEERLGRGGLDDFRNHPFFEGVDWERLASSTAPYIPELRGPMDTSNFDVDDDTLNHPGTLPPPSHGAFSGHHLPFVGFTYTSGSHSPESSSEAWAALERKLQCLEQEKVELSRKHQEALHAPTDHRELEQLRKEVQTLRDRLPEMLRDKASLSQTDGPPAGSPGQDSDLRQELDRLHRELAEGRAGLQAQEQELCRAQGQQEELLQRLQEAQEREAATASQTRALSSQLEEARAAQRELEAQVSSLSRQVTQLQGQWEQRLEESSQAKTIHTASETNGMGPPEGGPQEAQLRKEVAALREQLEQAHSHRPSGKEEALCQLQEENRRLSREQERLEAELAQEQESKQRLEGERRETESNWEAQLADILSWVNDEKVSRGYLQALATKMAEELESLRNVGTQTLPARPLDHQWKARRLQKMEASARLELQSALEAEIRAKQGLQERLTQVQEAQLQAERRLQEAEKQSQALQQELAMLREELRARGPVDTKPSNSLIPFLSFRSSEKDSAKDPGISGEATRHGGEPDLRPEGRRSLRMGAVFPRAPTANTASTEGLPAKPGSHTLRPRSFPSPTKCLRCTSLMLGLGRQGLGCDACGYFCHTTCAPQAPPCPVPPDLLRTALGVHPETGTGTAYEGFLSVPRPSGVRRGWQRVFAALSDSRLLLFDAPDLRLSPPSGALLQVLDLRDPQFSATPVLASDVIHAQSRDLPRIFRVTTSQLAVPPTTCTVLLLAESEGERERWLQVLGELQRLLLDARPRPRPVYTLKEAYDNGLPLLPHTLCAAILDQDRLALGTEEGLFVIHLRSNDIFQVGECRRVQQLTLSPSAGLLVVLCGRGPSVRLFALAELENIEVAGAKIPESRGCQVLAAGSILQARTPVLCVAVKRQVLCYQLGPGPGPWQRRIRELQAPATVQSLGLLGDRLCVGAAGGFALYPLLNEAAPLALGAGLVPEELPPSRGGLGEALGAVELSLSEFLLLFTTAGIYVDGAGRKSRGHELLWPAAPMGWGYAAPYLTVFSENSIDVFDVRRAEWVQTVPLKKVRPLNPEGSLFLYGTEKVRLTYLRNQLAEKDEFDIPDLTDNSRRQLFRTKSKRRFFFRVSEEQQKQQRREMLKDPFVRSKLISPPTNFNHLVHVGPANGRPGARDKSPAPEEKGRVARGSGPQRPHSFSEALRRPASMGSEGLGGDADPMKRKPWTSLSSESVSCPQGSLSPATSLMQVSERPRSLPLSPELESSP
# T14 sequence (Q8TD08 whole entry): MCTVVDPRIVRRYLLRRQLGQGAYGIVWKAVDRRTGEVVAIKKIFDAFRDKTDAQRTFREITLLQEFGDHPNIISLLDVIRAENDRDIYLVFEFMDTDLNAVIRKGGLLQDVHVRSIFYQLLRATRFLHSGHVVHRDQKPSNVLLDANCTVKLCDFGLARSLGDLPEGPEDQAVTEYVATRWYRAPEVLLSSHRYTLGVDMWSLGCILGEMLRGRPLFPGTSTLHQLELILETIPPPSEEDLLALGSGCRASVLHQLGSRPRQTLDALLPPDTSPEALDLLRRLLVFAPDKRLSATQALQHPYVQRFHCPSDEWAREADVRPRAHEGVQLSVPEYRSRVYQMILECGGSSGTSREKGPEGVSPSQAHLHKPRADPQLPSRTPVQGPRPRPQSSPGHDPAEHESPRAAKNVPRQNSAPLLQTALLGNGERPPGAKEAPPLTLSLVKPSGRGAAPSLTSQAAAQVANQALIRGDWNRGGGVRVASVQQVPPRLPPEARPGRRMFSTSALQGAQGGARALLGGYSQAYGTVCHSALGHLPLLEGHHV
# T23 sequence (P46734 whole entry): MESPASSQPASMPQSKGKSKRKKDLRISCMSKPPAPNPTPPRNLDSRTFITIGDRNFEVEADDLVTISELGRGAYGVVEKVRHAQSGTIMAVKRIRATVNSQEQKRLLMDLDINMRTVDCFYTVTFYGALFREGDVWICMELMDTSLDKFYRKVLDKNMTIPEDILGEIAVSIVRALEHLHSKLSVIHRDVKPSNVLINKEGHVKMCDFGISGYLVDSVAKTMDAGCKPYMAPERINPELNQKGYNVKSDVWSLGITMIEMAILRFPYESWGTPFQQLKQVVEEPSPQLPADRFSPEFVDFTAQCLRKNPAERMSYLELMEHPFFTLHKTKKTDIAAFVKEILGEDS
compound,measurement,setting,value
"COc1cc(Nc2ncc(F)c(Nc3ccc4c(n3)NC(=O)C(C)(C)O4)n2)cc(OC)c1OC [R406, reference compound]",remaining activity at 0.5 µM,AKT1,99.4%
same,remaining activity at 0.5 µM,AKT2,110%
same,remaining activity at 0.5 µM,ASK1/MAP3K5,97.1%
same,remaining activity at 0.5 µM,BRK,27.6%
same,remaining activity at 0.5 µM,BTK,28.8%
same,remaining activity at 0.5 µM,CAMK2b,95.8%
same,remaining activity at 0.5 µM,CAMK2g,101%
same,remaining activity at 0.5 µM,CDK2/cyclin A,47.6%
same,remaining activity at 0.5 µM,CDK4/cyclin D3,99.6%
same,remaining activity at 0.5 µM,CK2a,50.8%
same,remaining activity at 0.5 µM,CLK4,52.1%
same,remaining activity at 0.5 µM,DMPK2,57.5%
same,remaining activity at 0.5 µM,EPHB2,69.5%
same,remaining activity at 0.5 µM,ERK7/MAPK15,77.1%
same,remaining activity at 0.5 µM,FER,22.9%
same,remaining activity at 0.5 µM,FGFR4,58%
same,remaining activity at 0.5 µM,FGR,15.7%
same,remaining activity at 0.5 µM,GRK4,96.8%
same,remaining activity at 0.5 µM,GSK3b,37.9%
same,remaining activity at 0.5 µM,HGK/MAP4K4,75.3%
same,remaining activity at 0.5 µM,JAK3,10.4%
same,remaining activity at 0.5 µM,LCK2/ICK,99.8%
same,remaining activity at 0.5 µM,MEK3,131%
same,remaining activity at 0.5 µM,MSK2/RPS6KA4,97.7%
same,remaining activity at 0.5 µM,PASK,106%
same,remaining activity at 0.5 µM,PDGFRa,10.5%
same,remaining activity at 0.5 µM,PIM1,99.2%
same,remaining activity at 0.5 µM,PKCb2,30.7%
same,remaining activity at 0.5 µM,PRKX,104%
same,remaining activity at 0.5 µM,STK38L/NDR2,32.1%
same,remaining activity at 0.5 µM,TSSK2,95.2%
same,remaining activity at 0.5 µM,TTBK2,95.4%
same,remaining activity at 0.5 µM,TYK1/LTK,30.2%
same,remaining activity at 0.5 µM,ULK1,8.8%
same,remaining activity at 0.5 µM,WNK2,95.2%
same,remaining activity at 0.5 µM,YES/YES1,10.1%
same,remaining activity at 0.5 µM,ZAK/MLTK,85.4%
same,remaining activity at 0.5 µM,c-MET,71.4%
same,remaining activity at 0.5 µM,p70S6K/RPS6KB1,49.1%
